{
  "source": "patent US4992466A",
  "about": "“Polycyclic ether antibiotic” (Pfizer Inc., priority 1986, dated 1991)",
  "key": {"coccidial infections": {"tested_on": "coccidial infections", "assay": "activity against coccidial infections in poultry (lesion scores)", "conditions": "in diet of chickens"}, "Eimeria tenella": {"tested_on": "Eimeria tenella", "assay": "efficacy against coccidial infection in chickens (lesion scores)", "conditions": "in diet of chickens at 15 to 120 ppm; six days"}, "E. acervulina": {"tested_on": "E. acervulina", "assay": "efficacy against coccidial infection in chickens (lesion scores)", "conditions": "in diet of chickens at 15 to 120 ppm; five days"}, "Clostridium perfringens": {"tested_on": "Clostridium perfringens", "assay": "microbe, parasite or virus in culture", "format": "cell-based", "conditions": "24 h"}, "E. maxima": {"tested_on": "E. maxima", "assay": "efficacy against coccidial infection in chickens (lesion scores)", "conditions": "in diet of chickens at 15 to 120 ppm; six days"}, "E. brunetti": {"tested_on": "E. brunetti", "assay": "efficacy against coccidial infection in chickens (lesion scores)", "conditions": "in diet of chickens at 15 to 120 ppm; six days"}, "Actinomyces pyogenes": {"tested_on": "Actinomyces pyogenes", "assay": "in vitro antibacterial MIC (tube dilution, 24 hours)", "format": "cell-based", "method": "(§1) In Table I, below, the results of in vitro tests are summarized. For this test each organism is inoculated in a series of test tubes containing nutrient medium and varying concentrations of Antibiotic UK No.-61,689 to determine the minimal concentration of the compound in μg./ml. which inhibits the growth of the organism over a period of 24 hours (MIC)."}, "Treponema hyodysenteriae": {"tested_on": "Treponema hyodysenteriae", "assay": "in vitro antibacterial MIC (tube dilution, 24 hours)", "format": "cell-based", "conditions": "Brachyspira hyodysenteriae", "method": "as §1"}, "rumen fluid": {"tested_on": "rumen fluid", "assay": "in vitro rumen technique, propionic acid production", "format": "cell-based, cow", "conditions": "20 micrograms per milliliter, 39° C., about 16 hours, read-out: increase in the production of propionic acid over control solution", "method": "The value of animal feeds has generally been determined directly by feeding the animal. British Patent Specification No. 1,197,826 details an in vitro rumen technique whereby the changes occurring in feed brought about by microorganisms are measured more readily and with great accuracy in the evaluation of animal feeds. This technique involves the use of an apparatus in which the digestive processes of the animals are conducted and studied in vitro. The animal feeds, rumen inoculum and various growth promotants are introduced into and withdrawn from a laboratory unit under carefully controlled conditions and the changes taking place are studied critically and progressively during the consumption of the feed by the microorganisms. […] The change in propionic acid content is expressed as percent of the propionic acid content found in the control rumen fluid. Long term in vivo feeding studies are used to show a reliable correlation between propionic acid increase in the rumen fluid and improved animal performance. […]\nAfter incubation, 5 ml. of the sample is mixed with 1 ml. of 25% metaphosphoric acid. […] Samples are then analyzed by gas-liquid chromatography by the method of D. W. Kellog, J. Dairy Science, 52, 1690, 1969. Peak heights for acetic, propionic and butyric acids are determined for samples from untreated and treated incubation flasks."}, "E. necatrix": {"tested_on": "E. necatrix", "assay": "efficacy against coccidial infection in chickens (lesion scores)", "conditions": "in diet of chickens at 15 to 120 ppm; six days"}},
  "note": "Where two headings read alike, the source gives them in different places.",
  "data": [
    {"smiles": "COC1CCC(OC2CC(C3OC(C)(O)C(C)CC3C)OC2C2(C)CCC(C3(C)CCC4(CC(O)C(C)C(C(C)C5OC(O)(CC(=O)O)C(C)C(O)C5OC)O4)O3)O2)OC1C", "note": "(stereo not shown) [Antibiotic UK No.-61,689]", "values": [
      {"measurement": "activity against coccidial infections in poultry", "setting": "coccidial infections", "result": "excellent activity"},
      {"measurement": "controlling infections due to Eimeria tenella", "setting": "Eimeria tenella", "result": "effective in controlling infections"},
      {"measurement": "controlling infections due to E. acervulina", "setting": "E. acervulina", "result": "effective in controlling infections"},
      {"measurement": "MIC", "setting": "Clostridium perfringens; strain 10A006", "result": 25, "unit": "µg/mL"},
      {"measurement": "MIC", "setting": "Clostridium perfringens; strain 10A009", "result": 3.12, "unit": "µg/mL"},
      {"measurement": "controlling infections due to E. maxima", "setting": "E. maxima", "result": "effective in controlling infections"},
      {"measurement": "controlling infections due to E. brunetti", "setting": "E. brunetti", "result": "effective in controlling infections"},
      {"measurement": "MIC", "setting": "Actinomyces pyogenes; Trueperella pyogenes, strain 14D002, read-out: MIC", "result": 0.39, "unit": "µg/mL"},
      {"measurement": "MIC", "setting": "Actinomyces pyogenes; strain 14D008", "result": 0.39, "unit": "µg/mL"},
      {"measurement": "MIC", "setting": "Actinomyces pyogenes; strain 14D011", "result": 0.39, "unit": "µg/mL"},
      {"measurement": "MIC", "setting": "Treponema hyodysenteriae; strain 94A001", "result": 6.25, "unit": "µg/mL"},
      {"measurement": "MIC", "setting": "Treponema hyodysenteriae; strain 94A002", "result": 6.25, "unit": "µg/mL"},
      {"measurement": "MIC", "setting": "Treponema hyodysenteriae; strain 94A007", "result": 3.12, "unit": "µg/mL"},
      {"measurement": "MIC", "setting": "Treponema hyodysenteriae; strain 94A008", "result": 3.12, "unit": "µg/mL"},
      {"measurement": "activation at 20 µg/mL", "setting": "rumen fluid", "result": "~80", "unit": "%"},
      {"measurement": "controlling infections due to E. necatrix", "setting": "E. necatrix", "result": "effective in controlling infections"}
    ]}
  ]
}
